Like-named read-outs stand apart in the source and are kept apart here.
How the values were obtained:
[1] = tested on: Key Grass and Sedge Weeds as well as Grass Crops; test: Post-Emergent Test II: postemergent herbicidal activity, visual rating after 14 d (Table 8); assay type: in vivo; conditions: post-emergence, 336 h; for pest or weed control at 35 g/ha: 35 g ai/ha; for pest or weed control at 70 g/ha: 70 g ai/ha; for pest or weed control at 140 g/ha: 140 g ai/ha
Outline: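 Scoring is visual, 0-100, at 14 d after application, comparing treated with untreated plants. Application: overhead track spray at 187 L/ha onto seedlings at 1-2 true leaves, in surfactant/crop-oil carrier.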

[2] = tested on: Key Broadleaf Weed and Crop Species; test: Post-Emergent Test II: postemergent herbicidal activity, visual rating after 14 d (Table 7); assay type: in vivo; conditions: post-emergence, 336 h; for pest or weed control at 35 g/ha: 35 g ai/ha; for pest or weed control at 70 g/ha: 70 g ai/ha; for pest or weed control at 140 g/ha: 140 g ai/ha
From the text: Herbicidal evaluations were made visually on a scale of 0 to 100 where 0 represents no activity and 100 represents complete plant death.
Seeds or nutlets of the desired test plant species were planted in Sun Gro Metro-Mix® 360 planting mixture, which typically has a pH of 6.0 to 6.8 and an organic matter content of about 30 percent, in plastic pots with a surface area of 64 square centimeters (cm^2). When required to ensure good germination and healthy plants, a fungicide treatment and/or other chemical or physical treatment was applied. The plants were grown for 7-21 d in a greenhouse with an approximate 15 h photoperiod which was maintained at about 23-29° C. during the day and 22-28° C. during the night. Nutrients and water were added on a regular basis and supplemental lighting was provided with overhead metal halide 1000-Watt lamps as necessary. The plants were employed for testing when they reached the first or second true leaf stage.
A weighed amount, determined by the highest rate to be tested, of each test compound was placed in a 25 mL glass vial and was dissolved in 4 mL of a 97:3 v/v mixture of acetone and DMSO to obtain concentrated stock solutions. […] The concentrated stock solutions obtained were diluted with 20 mL of an aqueous mixture containing acetone, water, isopropyl alcohol, DMSO, Atplus 411F crop oil concentrate, and Triton® X-155 surfactant in a 48.5:39:10:1.5:1.0:0.02 v/v ratio to obtain spray solutions containing the highest application rates. Additional application rates were obtained by serial dilution of 12 mL of the high rate solution into a solution containing 2 mL of a 97:3 v/v mixture of acetone and DMSO and 10 mL of an aqueous mixture containing acetone, water, isopropyl alcohol, DMSO, Atplus 411F crop oil concentrate, and Triton X-155 surfactant in a 48.5:39:10:1.5:1.0:0.02 v/v ratio to obtain ½×, ¼×, ⅛× and 1/16× rates of the high rate. Compound requirements are based upon a 12 mL application volume at a rate of 187 liters per hectare (L/ha). Formulated compounds were applied to the plant material with an overhead Mandel track sprayer equipped with 8002E nozzles calibrated to deliver 187 L/ha over an application area of 0.503 square meters at a spray height of 18 inches (43 cm) above the average plant canopy height. Control plants were sprayed in the same manner with the solvent blank.
The treated plants and control plants were placed in a greenhouse as described above and watered by subirrigation to prevent wash-off of the test compounds. After 14 d, the condition of the test plants as compared with that of the untreated plants was determined visually and scored on a scale of 0 to 100 percent where 0 corresponds to no injury and 100 corresponds to complete kill and are presented as indicated in Table 4.

[3] = barnyardgrass (Echinochloa crus-galli), read-out: Visual Growth Reduction (%) 14 Days After Application ECHCG
[4] = giant foxtail (Setaria faberi), read-out: Visual Growth Reduction (%) 14 Days After Application SETFA
[5] = rice (Oryza sativa), read-out: Visual Growth Reduction (%) 14 Days After Application ORYSA
[6] = wheat, spring (Triticum aestivum), read-out: Visual Growth Reduction (%) 14 Days After Application TRZAS
[7] = yellow nutsedge (Cyperus esculentus), read-out: Visual Growth Reduction (%) 14 Days After Application CYPES
[8] = lambsquarters (Chenopodium album), read-out: Visual Growth Reduction (%) 14 Days After Application CHEAL
[9] = oilseed rape, canola (Brassica napus), read-out: Visual Growth Reduction (%) 14 Days After Application BRSNN
[10] = redroot pigweed (Amaranthus retroflexus), read-out: Visual Growth Reduction (%) 14 Days After Application AMARE
[11] = sunflower (Helianthus annuus), read-out: Visual Growth Reduction (%) 14 Days After Application HELAN
[12] = velvetleaf (Abutilon theophrasti), read-out: Visual Growth Reduction (%) 14 Days After Application ABUTH
[13] = wild poinsettia (Euphorbia heterophylla), read-out: Visual Growth Reduction (%) 14 Days After Application EPHHL

## Nc1nc(-c2ccc3c(c2)OC(F)(F)O3)nc(C(=O)O)c1Cl [Compound 61]
[1]; [3]
  pest or weed control at 35 g/ha: 85 to 94%
  pest or weed control at 70 g/ha: 85 to 94%
  pest or weed control at 140 g/ha: 85 to 94%
[1]; [4]
  pest or weed control at 35 g/ha: 60 to 74%
  pest or weed control at 70 g/ha: 75 to 84%
  pest or weed control at 140 g/ha: 85 to 94%
[1]; [5]
  pest or weed control at 35 g/ha: 0 to 29%
  pest or weed control at 70 g/ha: 45 to 59%
  pest or weed control at 140 g/ha: 60 to 74%
[1]; [6]
  pest or weed control at 35 g/ha: 60 to 74%
  pest or weed control at 70 g/ha: 75 to 84%
  pest or weed control at 140 g/ha: 75 to 84%
[1]; [7]
  pest or weed control at 35 g/ha: 0 to 29%
  pest or weed control at 70 g/ha: 0 to 29%
  pest or weed control at 140 g/ha: 45 to 59%
[2]; [8]
  pest or weed control at 35 g/ha: 60 to 74%
  pest or weed control at 70 g/ha: 60 to 74%
  pest or weed control at 140 g/ha: 75 to 84%
[2]; [9]
  pest or weed control at 35 g/ha: 60 to 74%
  pest or weed control at 70 g/ha: 85 to 94%
  pest or weed control at 140 g/ha: 75 to 84%
[2]; [10]
  pest or weed control at 35 g/ha: 0 to 29%
  pest or weed control at 70 g/ha: 30 to 44%
  pest or weed control at 140 g/ha: 30 to 44%
[2]; [11]
  pest or weed control at 35 g/ha: 60 to 74%
  pest or weed control at 70 g/ha: 60 to 74%
  pest or weed control at 140 g/ha: 75 to 84%
[2]; [12]
  pest or weed control at 35 g/ha: 45 to 59%
  pest or weed control at 70 g/ha: 60 to 74%
  pest or weed control at 140 g/ha: 60 to 74%
[2]; [13]
  pest or weed control at 35 g/ha: 85 to 94%
  pest or weed control at 70 g/ha: 95 to 100%
  pest or weed control at 140 g/ha: 95 to 100%

## COC(=O)c1nc(-c2ccc(Cl)c3c2OC(F)(F)O3)c(Cl)c(N)c1Cl [Compound 70]
[1]; [3]
  pest or weed control at 35 g/ha: 0 to 29%
  pest or weed control at 70 g/ha: 0 to 29%
  pest or weed control at 140 g/ha: 0 to 29%
[1]; [4]
  pest or weed control at 35 g/ha: 0 to 29%
  pest or weed control at 70 g/ha: 0 to 29%
  pest or weed control at 140 g/ha: 0 to 29%
[1]; [5]
  pest or weed control at 35 g/ha: 0 to 29%
  pest or weed control at 70 g/ha: 0 to 29%
  pest or weed control at 140 g/ha: 0 to 29%
[1]; [6]
  pest or weed control at 35 g/ha: 0 to 29%
  pest or weed control at 70 g/ha: 0 to 29%
  pest or weed control at 140 g/ha: 0 to 29%
[1]; [7]
  pest or weed control at 35 g/ha: 0 to 29%
  pest or weed control at 70 g/ha: 0 to 29%
  pest or weed control at 140 g/ha: 0 to 29%
[2]; [8]
  pest or weed control at 35 g/ha: 75 to 84%
  pest or weed control at 70 g/ha: 85 to 94%
  pest or weed control at 140 g/ha: 95 to 100%
[2]; [9]
  pest or weed control at 35 g/ha: 60 to 74%
  pest or weed control at 70 g/ha: 60 to 74%
  pest or weed control at 140 g/ha: 75 to 84%
[2]; [10]
  pest or weed control at 35 g/ha: 95 to 100%
  pest or weed control at 70 g/ha: 95 to 100%
  pest or weed control at 140 g/ha: 95 to 100%
[2]; [11]
  pest or weed control at 35 g/ha: 85 to 94%
  pest or weed control at 70 g/ha: 95 to 100%
  pest or weed control at 140 g/ha: 95 to 100%
[2]; [12]
  pest or weed control at 35 g/ha: 45 to 59%
  pest or weed control at 70 g/ha: 75 to 84%
  pest or weed control at 140 g/ha: 75 to 84%
[2]; [13]
  pest or weed control at 35 g/ha: 0 to 29%
  pest or weed control at 70 g/ha: 0 to 29%
  pest or weed control at 140 g/ha: 0 to 29%
